TGI and GI50 data for 39 compounds are collected here from PubChem BioAssay (NCI).

Experiment in all cases: NCI tumour cell line growth inhibition, 48 h
Test [1] deals with MDA-MB-231 breast.
The test system of test [2] is HCC-2998 colon.
In test [3] the test system is BT-549 breast.
Test [4] relates to CAKI-1 renal.
The test system of test [5] is OVCAR-3 ovarian.

The structures appear in SMILES notation. Several values for one entry are separate records, joined by “and”; a condition that tells them apart may be missing. Equal entries are not always repeated.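 Protocol summary: plate cells (96-well), add compound at 5 concentrations, incubate 48 h, interpolate endpoints linearly. GI50: concentration for 50% inhibition of growth. TGI denotes the concentration required for complete inhibition of growth.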

Turning to `CCOC(=O)CCC(NC(=O)C(N)c1ccc([N+](=O)[O-])cc1)C(=O)NC(CCC(=O)OCC)C(=O)OCC` (stereo not drawn), the TGI in test [1], in test [2] and in test [3] was greater than 100 µM each time.
`CSC1=C(C(=O)Nc2ccc(C)cc2)C(N)=NC1=O`: the TGI in test [1], in test [2] and in test [4] was greater than 100 µM in each case.
With `CC1(C)S[C@H](CN)N[C@H]1C(=O)OC(c1ccccc1)c1ccccc1`, the TGI was greater than 100 µM in test [1], 36 µM in test [2], greater than 100 µM in test [4] and 92.2 µM in test [3].
Turning to `NC(=O)C(=CNC(=S)Nc1ccc(S(=O)(=O)Nc2ccccn2)cc1)C(N)=O`, the TGI in test [5], in test [1], in test [4] and in test [3] was greater than 100 µM in each case.
With `CC(=O)C1(C)CC(C#N)(C#N)C(C#N)=C1N` (stereo not drawn), the TGI in test [5], in test [1], in test [2], in test [4] and in test [3] was greater than 100 µM throughout.
On to `O=[N+]([O-])c1ccc(C2=NOC(c3ccc(Cl)cc3)N2C23CC4CC(CC(C4)C2)C3)cc1` (stereo not drawn), for which the TGI in test [5], in test [1], in test [2], in test [4] and in test [3] was greater than 100 µM each time.
With `NC(=O)NNCc1c(-c2ccccc2)no[n+]1[O-]`, the TGI in test [5], in test [1], in test [2], in test [4] and in test [3] was greater than 100 µM in each case.
As for `CCc1cc2c(c3c1CCCC3)CC1(Cc3ccc(C(=O)OC)cc3C1)C2` (stereo not drawn), the TGI in test [5], in test [1], in test [2] and in test [3] was greater than 100 µM throughout.
For `O=C(Cn1c(=O)oc2ccc(C(=O)c3ccc(F)cc3)cc21)c1ccccc1`, the TGI in test [1], in test [2] and in test [4] was greater than 100 µM throughout.
In the case of `COC1CC(C)([N+](=O)[O-])C(O)C(C)O1` (stereo not drawn), the TGI in test [5], in test [1], in test [2], in test [4] and in test [3] was greater than 100 µM each time.
`O=c1cc(NNc2ccccc2F)[nH]c(=O)[nH]1`: the TGI in test [5] was 31.6 µM; in test [1] it was 29.9 µM; in test [2] it was 34.9 µM; in test [4], 25.7 µM; in test [3], 31.8 µM.
Take `O=C1NC(=S)NC(=O)C1=Cc1ccc(-c2ccccc2)cc1`: the TGI in test [5], in test [1], in test [2], in test [4] and in test [3] was greater than 100 µM in each case.
Consider `N/C(=N\N=C\c1cc(I)cc(I)c1O)NO`, for which the TGI in test [5] was 14.6 µM; in test [1], greater than 100 µM; in test [2] it was greater than 100 µM; in test [4] it was greater than 100 µM; in test [3] it was greater than 100 µM.
As to `COc1ccc(NC(=O)CC(=O)NNC(Sc2ccccc2)c2cc(N=Nc3ccc(Br)cc3)ccc2O)cc1` (stereo not drawn), the TGI in test [5], in test [1], in test [2], in test [4] and in test [3] was greater than 10 µM in each case.
For `CC1OC(OC2C(OC(=O)[C@]34CCC(C)(C)C[C@H]3C3=CC[C@@H]5[C@@]6(C)CC[C@H](OC7OC(CO)C(O)C(O)C7OC7OC(CO)C(O)C(O)C7O)C(C)(C)[C@@H]6CC[C@@]5(C)[C@]3(C)CC4)OCC(O)C2O)C(O)C(O)C1OC1OCC(O)C(OC2OCC(O)C(O)C2O)C1O` (stereo partly drawn), the TGI in test [5] is 22.3 µM and 34.6 µM; in test [1], 8.71 µM and 9.09 µM; in test [2], 3.75 µM and 3.4 µM; in test [4], 15.8 µM and 15.3 µM; in test [3], 10.8 µM.
As for `CC(=O)OCC1OC(n2c(N)c(C#N)c(C)c(C#N)c2=S)C(OC(C)=O)C(OC(C)=O)C1OC(C)=O` (stereo not drawn), the TGI in test [5], in test [1], in test [2], in test [4] and in test [3] was greater than 100 µM in each case. Moreover, the GI50 in test [1] was 40 µM and > 100 µM.
Consider `NS(=O)(=O)c1nnc(NC(=O)c2cccc([N+](=O)[O-])c2)s1`, for which the TGI in test [5], in test [1], in test [2], in test [4] and in test [3] was greater than 100 µM throughout.
For the compound `Cc1nc(C)c(N2CCN(C(=O)O)CC2)c(=O)[nH]1`, the TGI in test [5], in test [1], in test [2], in test [4] and in test [3] was greater than 100 µM throughout.
As for `CCO/C(O)=C(/C(=N)N1CCCC1)C(=O)Nc1cccc(Cl)c1`, the TGI in test [5], in test [1], in test [2], in test [4] and in test [3] was greater than 100 µM in each case.
On to `CCOC(=O)c1nc2ccc(C(F)(F)F)cc2nc1Nc1ccc(F)cc1`, for which the TGI in test [5], in test [4] and in test [3] was greater than 100 µM in each case.
On to `Cc1cc(S(=O)(=O)Nc2n[nH]c(Nc3ccc4ccccc4c3)n2)c(S)cc1Cl`, for which the TGI in test [5] is 51.7 µM; in test [1] it was greater than 100 µM; in test [2] it was greater than 100 µM; in test [4] it was 91 µM; in test [3] it was greater than 100 µM.
For the compound `CC(C)CCC[C@@H](C)C1CCC2[C@@H]3CCC4C[C@@H](NS(C)(=O)=O)CC[C@]4(C)C3CC[C@@]21C` (stereo partly drawn), the TGI in test [5], in test [1], in test [4] and in test [3] was greater than 100 µM in each case.
For the compound `COc1cccc(C=C2N=C(c3ccccc3)N(n3c(-c4ccccc4)nc4ccccc4c3=O)C2=O)c1`, the TGI in test [1], in test [2], in test [4] and in test [3] was greater than 100 µM in each case.
As for `COc1cc(COC(=O)N2CC=CC2C(=O)O)c([N+](=O)[O-])cc1OC` (stereo not drawn), the TGI in test [5], in test [2] and in test [3] was greater than 100 µM throughout.
In the case of `CC(=O)Oc1c(OC(C)C)c(C)c(O[Si](C(C)C)(C(C)C)C(C)C)c2[nH]c3ccccc3c12`, the TGI in test [5], in test [1], in test [4] and in test [3] was greater than 100 µM throughout.
Consider `COc1cc(C(c2cccc3ccccc23)N2C(=O)CCC2C(=O)O)cc(OC)c1OC` (stereo not drawn), for which the TGI in test [5], in test [1], in test [4] and in test [3] was greater than 100 µM in each case.
`CN(C)/C=N\c1nncc2[nH]cnc12`: the TGI in test [5], in test [2], in test [4] and in test [3] was greater than 100 µM each time.
In the case of `COc1cc(C2c3cc4c(cc3OC(NCCc3ccccc3)C2C)OCO4)cc(OC)c1OC` (stereo not drawn), the TGI stood at 1.02 µM in test [1], 0.85 µM in test [2], 0.939 µM in test [4] and 22.7 µM in test [3].
Take `CCOC(=O)c1nc2ccccc2nc1Oc1ccc(C#N)cc1`: the TGI in test [5] and in test [3] was greater than 100 µM throughout.
On to `CCOC(=O)c1sc2c(c1O)c(=O)n(-c1ccccc1)c(=S)n2-c1ccccc1`, for which the TGI in test [5], in test [1], in test [2] and in test [3] was greater than 100 µM each time.
As for `CCCC(C)NC(=O)c1ccc(N(C)Cc2cnc3nc(N)nc(N)c3n2)cc1` (stereo not drawn), the TGI in test [5] was 46.2 µM; in test [1], greater than 100 µM; in test [4], greater than 100 µM; in test [3] it was 41.6 µM.
As for `COC(=O)c1nn2ccc3ccccc3c2c1C(=O)OC`, the TGI in test [1], in test [4] and in test [3] was greater than 100 µM throughout.
As to `NC(=O)c1nnsc1NN=O`, the TGI in test [1], in test [2] and in test [4] was greater than 100 µM throughout.
For `CSc1nn(C)cc2nc(C)nc1-2`, the TGI in test [5], in test [1], in test [4] and in test [3] was greater than 100 µM each time.
`Cc1cccc(/C=N\NC(=S)N2CCCCC2)n1`: the TGI is greater than 100 µM in test [2] and 3.62 µM in test [4].
In the case of `CN=C(N)N=Nc1c(O)[nH]c2ccccc12`, the TGI in test [1], in test [2], in test [4] and in test [3] was greater than 100 µM throughout.
Regarding `Oc1cnc2c(O)cccc2c1`, the TGI in test [5] was 65 µM; in test [1] it was greater than 100 µM; in test [2], greater than 100 µM.
`CCc1[nH]c(=O)c2oc3cc4ccccc4cc3c2c1C(=O)O`: the TGI in test [5], in test [1], in test [2] and in test [3] was greater than 10 µM throughout.
As to `CCOC(=O)N(C)C(=C(F)F)C(F)(F)F`, the TGI was greater than 100 µM in test [5], 84.2 µM in test [1] and 37.7 µM in test [2].
